Data reported in patent publication US20130131321A1, “LIGANDS FOR ANTIBODY AND Fc-FUSION PROTEIN PURIFICATION BY AFFINITY CHROMATOGRAPHY” (GRAFFINITY PHARMACEUTICALS GMBH, priority 2010, published 2013).

Assays:
[1] = Alkaline stability in sodium hydroxide, LC-MS; format: physicochemical; details: 25° C., 8 days
Protocol: It was either treated with 0.1 M or 0.5 M sodium hydroxide at 25° C. Hydrolysis was monitored by LC-MS analysis.

Anti RhD IgG = experiment: SPR screening of chemical microarrays, Anti RhD IgG; format: binding; details: chemical microarray, immobilized ligand
Text: (§1) Graffinity has developed high density chemical microarrays comprising thousands of small molecules immobilized onto gold chips. The arrays are constructed using maleimide-thiol coupling chemistry in combination with high density pintool spotting. For the construction, glass plates are microstructured by photolithographical methods in order to define up to 9,216 sensor fields per array. A subsequently applied gold coating provides the basis for the SPR effect and enables the formation of a binary, mixed self assembled monolayer (SAM) of two different thiols. […]
(§2) Surface plasmons are collective oscillations of electrons at a metal surface which can be resonantly excited by polarized light of appropriate wavelength and incidence angle. […] Processes which alter the local refractive index in close proximity to the metal surface (such as antibody binding to the immobilized ligands) can therefore be monitored sensitively. […] While scanning over a range of wavelengths covering the SPR resonance conditions, reflection images are recorded stepwise. […]
(§3) The experimental results of the microarray screening campaigns were analyzed by manual hit selection using in-house developed software routines as well as by an in-depth data analysis by commercially available data mining tools. […]

Tocilicumab = experiment: SPR screening of chemical microarrays, Tocilizumab; format: binding, humanized; details: chemical microarray, immobilized ligand
Text: as §1, §2, §3

Palivizumab = experiment: SPR screening of chemical microarrays, Palivizumab; format: binding, humanized; details: chemical microarray, immobilized ligand
Text: as §1, §2, §3

[2] = system: human poly-IgG (h-poly-IgG); experiment: Microtiter plate chromatography of resins, human poly-IgG (bound, yield); format: binding
rabbit poly-IgGs = experiment: Microtiter plate chromatography of resins, rabbit poly-IgG; format: binding
Protocol: (§4) Resins were assessed in packed mode by microtiter plate chromatography. For each column, approximately 30 μl of resin were transferred to a 384-well filter plate and sealed with appropriate top frits.
(§5) Columns were equilibrated with 6.7 column volumes (cv) of phosphate buffered saline (0.15 M NaCl, 20 mM sodium phosphate, pH 7.3; PBS) prior to injection. Either 3.3 cv of whole IgGs dissolved at 0.75 mg ml^−1, Fab or Fc fragments dissolved at 0.25 mg ml^−1 (all three in PBS) or host cell proteins (HCP) were injected onto columns. Antibody fragments of Bevacizumab (Fab and Fc) were prepared by cleavage of whole IgG with papain protease (3) according to the protocol of the manufacturer. […] Volumes transferred were spun through columns at 50 g for 1-2 min. During injection of samples, acceleration was reduced to 10 g and centrifugation time increased to 5-10 min. Effluent fractions were collected in 384-well plates and concentrations of protein analyzed by Bradford assay. Protein masses mi, mft and me (see below) were calculated as the product of fraction volume and measured protein concentration.
(§6) The fraction of ‘bound’ protein was calculated as the difference between the total mass of protein injected mi and the mass of protein detected in the flowthrough mft, divided by the total mass of protein injected.
The ‘yield’ of protein was calculated as the mass of protein eluted me, divided by the mass of protein injected mi.
(§7) the fraction of ‘bound’ protein and the ‘yield’ of protein were calculated for each resin based on data for whole IgG-antibodies. In the case of Bevacizumab fragments and host cell proteins, only the fraction of ‘bound’ protein is given. Selectivity of resins was calculated from data for Bevacizumab Whole IgG and host cell proteins. Due to limited experimental precision, selectivity was truncated beyond values of 10.

Bevacizumab Fc fragment = experiment: Microtiter plate chromatography of resins, Bevacizumab Fc fragment (bound); format: binding, humanized
Protocol: as §4, §5, §6, §7

Question: What does the source list for COc1ccc(NC(=O)c2cc(-c3ccco3)n(C)n2)cc1C(=O)NCCCN [Ligand L1, 5-[5-(2-Furyl)-1-methylpyrazol-3-yl]carboxamido-2-methoxybenzoic acid N-(3-aminopropyl)amide]?
Answer: degradation (alkaline stability) ([1]; 0.1 M NaOH): no degradation; half-life ([1]; 0.5 M sodium hydroxide solution, 0.5 M NaOH): 12 days; SPR binding to full length Anti RhD IgG (Anti RhD IgG): clearly bound; SPR binding to full length Tocilicumab (Tocilicumab): clearly bound; SPR binding to full length Palivizumab (Palivizumab): clearly bound; h-poly-IgG Bound (%) [2]: 100%; h-poly-IgG Yield (%) [2]: 90%; r-poly-IgG Bound (%) (rabbit poly-IgGs): 100%; r-poly-IgG Yield (%) (rabbit poly-IgGs): 100%; binding of rabbit poly-IgGs (rabbit poly-IgGs; microtiter plate chromatography, PBS): efficient binding; Bevacizumab Fc Bound (%) (Bevacizumab Fc fragment; Bevacizumab Fc fragment): 100%; binding of Bevacizumab Fc-fragment (Bevacizumab Fc fragment; Fc 0.25 mg ml^-1 in PBS): bound the Fc-fragment
